Assay results as given in ChEMBL document CHEMBL2176881, “Development of N-[4-[6-(isopropylamino)pyrimidin-4-yl]-1,3-thiazol-2-yl]-N-methyl-4-[11C]methylbenzamide for positron emission tomography imaging of metabotropic glutamate 1 receptor in monkey brain” (J Med Chem, 2012).

Columns and labels:
[1] = test system: Blood; test: Biodistribution in ddY mouse blood at 4.8 MBq/0.1 mL after 90 mins by gamma counting; assay type: ADME, organism-based; details: in vivo, 1.5 h
[2] = species on record: Mus musculus; test: Biodistribution in ddY mouse small intestine at 4.8 MBq/0.1 mL after 15 mins by gamma counting; assay type: ADME, organism-based; details: in vivo, 0.25 h
[3] = test system: Muscle tissue; test: Biodistribution in ddY mouse muscle at 4.8 MBq/0.1 mL after 15 mins by gamma counting; assay type: ADME, organism-based; details: in vivo, 0.25 h
[4] = test system: Lung; test: Biodistribution in ddY mouse lung at 4.8 MBq/0.1 mL after 15 mins by gamma counting; assay type: ADME, organism-based; details: in vivo, 0.25 h
[5] = Drug uptake in monkey cingulate cortex assessed as distribution volume ratio at 185 to 220 MBq, iv after 10 to 90 mins by PET analysis; assay type: ADME, organism-based, Macaca mulatta; details: rhesus monkey, in vivo

- Drug uptake [1]: 0.02 % ID/g
- Drug uptake [2]: 41.52 % ID/g
- Drug uptake [3]: 0.23 % ID/g
- Drug uptake [4]: 0.86 % ID/g
- Ratio [5]: 2.6
SMILES: CC(C)Nc1cc(-c2csc(N(C)C(=O)c3ccc([14CH3])cc3)n2)ncn1
